# Patent US20220306659A1, “COMPOUND INHIBITING AND INDUCING DEGRADATION OF EGFR AND ALK” (BEIJING TIDE PHARMACEUTICAL CO., LTD., priority 2019, published 2022)
# What was measured:
# EGFR^Del19/T790M/C797S = EGFR^Del19/T790M/C797S (Homo sapiens, UniProt P00533, C797S/DEL746-750/T790M); test: EGFR inhibitory activity assay (TK-substrate-biotin/ATP, 665/615 ratio); format: biochemical; details: kinase inhibition
# Description: EGFR Inhibitory Activity Assay
# (2) The plate was sealed, and centrifuged at 1,000 g for 1 min;
# (4) 5 μl of the 2×EGFR protein working solution was added to the 384-well plate from step (2), centrifuged at 1,000 g for 30 s, and allowed to stand at room temperature (mixed thoroughly) for 10 min;
# (6) 5 µL of the TK-substrate-biotin and ATP (the mixture prepared in step (5)) was added to the 384-well plate from step (4) to initiate the reaction;
# (7) The mixture was centrifuged at 1,000 g for 30 s; the plate was sealed, and allowed to stand (and reacted) at room temperature for 40 min;
# (10) The mixture was centrifuged at 1,000 g for 30 s, and allowed to stand (reacted) at room temperature for 1 h;
# (§1) Formula of inhibition rate (%): […]
# (§2) The nonlinear regression curve (dose response-variable slope) between the value of inhibition rate (%) and the logarithm of compound concentration was fitted with graphpad prism 8.0, the effect dose curve of compound was drawn, and the IC50 value was calculated.
# EGFR^L858R/T790M/C797S = EGFR^L858R/T790M/C797S (Homo sapiens, UniProt P00533, C797S/L858R/T790M); test: as above; format: biochemical; details: kinase inhibition
# How it was run: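 HTRF kinase assay: enzyme preincubated with compound 10 min at room temperature, then reacted with biotinylated TK substrate and ATP for 40 min at room temperature.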
# [1] = target: Ba/F3(EGFR^L858R/T790M/C797S) cells (Homo sapiens, UniProt P00533, T790M/C797S/L858R, cells depend on it); test: Assay of activity on Ba/F3 cells (CTG, 72 h); format: cell-based; details: read-out: IC50 (nM) Ba/F3 (EGFR^L858R/T790M/C797S)
# How it was run: (§3)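 Ba/F3 cells dependent on each EGFR triple mutant were exposed to 3-fold compound dilutions for 72 h at 37° C, 5% CO2, with CellTiter-Glo luminescence as the read-out.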
# ALK = ALK (Homo sapiens, UniProt Q9UM73); test: Assay of activity on ALK kinase; format: biochemical; details: kinase inhibition
# Description: (§4) Assay of activity on ALK kinase
# (§5) (1) A compound stock solution was prepared;
# (§6) (2) The compound stock solution was diluted 3× to obtain a compound dilution;
# (§7) (5) 5 μl of the 2× kinase working solution was added to the reaction plate, centrifuged at 1,000 rpm for 1 min, and incubated at 25° C. for 15 min;
# (§8) (7) 5 μl of the TK-substrate-biotin and ATP (the mixture prepared in step (6)) was added to initiate the reaction;
# (§9) (8) The mixture was centrifuged at 1,000 g for 30 s; the plate was sealed, and incubated at 25° C. for 60 min;
# (§10) (11) The mixture was centrifuged at 1,000 g for 1 min, and incubated at 25° C. for 60 min;
# as §1, §2
# (§11) Y=Bottom+(Top−Bottom)/(1+10^((LogIC50−X)*Hill Slope))
# (§12) X-axis: logarithm of compound concentration; Y axis: inhibition rate ([…])
# [2] = target: Ba/F3(EGFR^Del19/T790M/C797S) cells (Homo sapiens, UniProt P00533, DEL746-750/T790M/C797S, cells depend on it); test: Assay of activity on Ba/F3 cells (CTG, 72 h); format: cell-based; details: read-out: IC50 (nM) Ba/F3 (EGFR^Del19/T790M/C797S)
# How it was run: as §3
# ALK^G1202R = ALK^G1202R (Homo sapiens, UniProt Q9UM73, G1202R); test: Assay of activity on ALK kinase; format: biochemical; details: kinase inhibition
# Description: as §4, §5, §6, §7, §8, §9, §10, §1, §2, §11, §12
# Ba/F3(EML4-ALK) cells = target: T1, Ba/F3(EML4-ALK) cells (Homo sapiens, UniProt Q9UM73); test: Assay of activity on Ba/F3(EML4-ALK) cells (CTG, 72 h); format: cell-based; details: read-out: IC50 (nM) Ba/F3(EML4-ALK)
# T1 construct: fused on or other part: Q9HC35 (Echinoderm microtubule-associated protein-like 4)
# How it was run: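 Ba/F3(EML4-ALK) cells, 700 per well, were exposed to 3-fold serial compound dilutions for 72 h at 37° C, 5% CO2, and viability was then read by CTG luminescence.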
# ALK^G1202R, sequence (Q9UM73 19-1620 G1202R): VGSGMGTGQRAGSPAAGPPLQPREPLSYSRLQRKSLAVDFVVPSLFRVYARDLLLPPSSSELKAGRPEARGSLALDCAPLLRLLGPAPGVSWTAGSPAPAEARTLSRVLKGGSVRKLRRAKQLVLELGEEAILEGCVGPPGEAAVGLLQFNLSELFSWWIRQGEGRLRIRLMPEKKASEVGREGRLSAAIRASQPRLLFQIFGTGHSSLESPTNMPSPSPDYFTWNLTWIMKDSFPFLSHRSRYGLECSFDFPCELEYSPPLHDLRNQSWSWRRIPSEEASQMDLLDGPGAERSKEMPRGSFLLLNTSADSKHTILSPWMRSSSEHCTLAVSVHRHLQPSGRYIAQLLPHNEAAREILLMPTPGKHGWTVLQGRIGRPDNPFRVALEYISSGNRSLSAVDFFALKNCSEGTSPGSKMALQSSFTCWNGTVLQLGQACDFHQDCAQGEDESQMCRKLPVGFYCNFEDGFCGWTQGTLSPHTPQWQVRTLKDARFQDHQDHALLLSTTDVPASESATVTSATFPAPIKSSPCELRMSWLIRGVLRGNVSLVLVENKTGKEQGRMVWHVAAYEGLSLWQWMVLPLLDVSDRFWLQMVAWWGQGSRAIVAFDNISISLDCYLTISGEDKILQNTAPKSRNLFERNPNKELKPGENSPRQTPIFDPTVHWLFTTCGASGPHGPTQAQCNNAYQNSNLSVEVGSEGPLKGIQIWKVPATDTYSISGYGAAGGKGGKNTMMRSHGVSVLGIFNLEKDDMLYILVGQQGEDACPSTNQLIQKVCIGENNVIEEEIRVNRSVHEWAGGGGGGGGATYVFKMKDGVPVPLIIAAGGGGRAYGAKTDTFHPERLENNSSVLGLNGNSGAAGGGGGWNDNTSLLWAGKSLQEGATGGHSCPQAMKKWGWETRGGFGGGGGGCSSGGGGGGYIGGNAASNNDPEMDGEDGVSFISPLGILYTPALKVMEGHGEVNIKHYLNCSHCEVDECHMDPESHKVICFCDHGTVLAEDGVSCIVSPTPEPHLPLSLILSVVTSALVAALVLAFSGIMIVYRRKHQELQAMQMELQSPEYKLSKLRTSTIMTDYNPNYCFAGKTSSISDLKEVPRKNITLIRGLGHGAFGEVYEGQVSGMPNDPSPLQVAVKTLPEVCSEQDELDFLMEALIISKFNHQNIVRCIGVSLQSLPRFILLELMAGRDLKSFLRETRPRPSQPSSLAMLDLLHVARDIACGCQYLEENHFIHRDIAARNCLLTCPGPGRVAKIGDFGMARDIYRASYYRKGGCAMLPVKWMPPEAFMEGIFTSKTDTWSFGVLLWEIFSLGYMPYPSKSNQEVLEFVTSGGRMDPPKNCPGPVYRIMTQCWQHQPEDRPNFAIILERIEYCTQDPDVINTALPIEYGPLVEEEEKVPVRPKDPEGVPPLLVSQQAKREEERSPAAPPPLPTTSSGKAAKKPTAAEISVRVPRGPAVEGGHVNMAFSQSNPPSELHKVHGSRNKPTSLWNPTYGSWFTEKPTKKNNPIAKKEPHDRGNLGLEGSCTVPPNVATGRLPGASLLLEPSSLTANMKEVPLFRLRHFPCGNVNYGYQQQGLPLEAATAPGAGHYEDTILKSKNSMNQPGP
# Ba/F3(EGFR^L858R/T790M/C797S) cells, sequence (P00533 whole entry T790M/C797S/L858R): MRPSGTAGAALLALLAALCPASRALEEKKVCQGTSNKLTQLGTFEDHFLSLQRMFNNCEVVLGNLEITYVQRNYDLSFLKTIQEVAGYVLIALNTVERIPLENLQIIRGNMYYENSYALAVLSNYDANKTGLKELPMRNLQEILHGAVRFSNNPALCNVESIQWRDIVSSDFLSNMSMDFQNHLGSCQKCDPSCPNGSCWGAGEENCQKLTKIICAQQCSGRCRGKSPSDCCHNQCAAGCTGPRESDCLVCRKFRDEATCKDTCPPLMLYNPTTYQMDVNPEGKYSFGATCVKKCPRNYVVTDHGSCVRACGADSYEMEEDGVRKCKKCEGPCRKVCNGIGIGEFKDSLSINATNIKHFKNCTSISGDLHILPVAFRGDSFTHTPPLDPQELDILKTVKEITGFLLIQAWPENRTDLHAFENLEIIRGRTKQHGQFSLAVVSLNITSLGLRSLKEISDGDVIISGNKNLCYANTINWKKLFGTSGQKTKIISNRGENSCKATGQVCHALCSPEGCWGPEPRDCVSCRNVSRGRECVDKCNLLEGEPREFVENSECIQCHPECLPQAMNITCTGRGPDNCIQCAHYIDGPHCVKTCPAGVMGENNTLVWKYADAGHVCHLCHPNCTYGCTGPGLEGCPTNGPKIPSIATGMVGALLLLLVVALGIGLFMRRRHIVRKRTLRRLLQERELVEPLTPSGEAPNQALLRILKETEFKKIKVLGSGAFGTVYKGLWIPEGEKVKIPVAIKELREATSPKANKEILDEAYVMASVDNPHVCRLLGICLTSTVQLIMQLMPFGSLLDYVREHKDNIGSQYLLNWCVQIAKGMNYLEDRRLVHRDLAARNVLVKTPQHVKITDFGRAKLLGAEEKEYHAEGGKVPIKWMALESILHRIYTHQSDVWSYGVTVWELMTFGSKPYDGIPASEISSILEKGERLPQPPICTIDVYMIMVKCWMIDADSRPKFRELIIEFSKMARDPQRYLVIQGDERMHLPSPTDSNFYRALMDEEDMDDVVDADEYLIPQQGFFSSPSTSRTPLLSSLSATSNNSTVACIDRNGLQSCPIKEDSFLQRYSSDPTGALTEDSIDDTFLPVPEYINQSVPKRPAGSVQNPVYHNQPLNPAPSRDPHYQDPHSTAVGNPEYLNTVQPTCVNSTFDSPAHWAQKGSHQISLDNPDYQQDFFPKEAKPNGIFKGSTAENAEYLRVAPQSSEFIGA
# EGFR^L858R/T790M/C797S, sequence (P00533 25-1210 T790M/C797S/L858R): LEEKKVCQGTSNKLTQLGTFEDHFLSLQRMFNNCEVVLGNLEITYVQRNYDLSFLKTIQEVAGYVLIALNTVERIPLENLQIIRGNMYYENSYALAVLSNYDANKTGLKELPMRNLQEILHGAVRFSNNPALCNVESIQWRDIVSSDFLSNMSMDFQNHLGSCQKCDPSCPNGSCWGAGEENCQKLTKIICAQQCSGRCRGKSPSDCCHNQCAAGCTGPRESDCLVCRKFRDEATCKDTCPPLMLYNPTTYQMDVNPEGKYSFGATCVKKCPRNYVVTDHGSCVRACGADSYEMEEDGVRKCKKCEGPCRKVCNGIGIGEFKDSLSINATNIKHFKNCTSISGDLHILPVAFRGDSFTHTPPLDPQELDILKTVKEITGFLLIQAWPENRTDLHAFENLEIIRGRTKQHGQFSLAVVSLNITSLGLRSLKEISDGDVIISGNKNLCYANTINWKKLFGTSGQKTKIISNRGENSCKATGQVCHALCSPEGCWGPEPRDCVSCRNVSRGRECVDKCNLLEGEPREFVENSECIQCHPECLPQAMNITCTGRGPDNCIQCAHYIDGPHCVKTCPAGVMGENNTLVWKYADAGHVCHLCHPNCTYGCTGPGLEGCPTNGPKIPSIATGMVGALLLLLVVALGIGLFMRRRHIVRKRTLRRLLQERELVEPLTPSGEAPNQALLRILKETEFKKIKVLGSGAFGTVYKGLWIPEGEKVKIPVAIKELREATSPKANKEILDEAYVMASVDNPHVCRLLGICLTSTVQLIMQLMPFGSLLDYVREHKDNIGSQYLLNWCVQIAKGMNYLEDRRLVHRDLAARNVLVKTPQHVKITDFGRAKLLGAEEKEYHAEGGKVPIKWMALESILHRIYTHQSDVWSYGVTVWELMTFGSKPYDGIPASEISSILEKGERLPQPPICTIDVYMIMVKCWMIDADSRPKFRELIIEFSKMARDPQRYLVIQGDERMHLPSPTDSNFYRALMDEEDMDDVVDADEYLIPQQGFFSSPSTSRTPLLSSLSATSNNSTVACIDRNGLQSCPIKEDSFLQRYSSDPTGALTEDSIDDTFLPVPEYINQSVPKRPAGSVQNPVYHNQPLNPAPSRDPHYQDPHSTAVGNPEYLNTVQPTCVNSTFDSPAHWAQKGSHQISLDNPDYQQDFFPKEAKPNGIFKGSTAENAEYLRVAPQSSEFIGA
# ALK, sequence (Q9UM73 19-1620): as the sequence (Q9UM73 19-1620 G1202R) above, with R1184G counted along it
# EGFR^Del19/T790M/C797S, sequence (P00533 with tags, fused parts or gaps DEL746-750/T790M/C797S): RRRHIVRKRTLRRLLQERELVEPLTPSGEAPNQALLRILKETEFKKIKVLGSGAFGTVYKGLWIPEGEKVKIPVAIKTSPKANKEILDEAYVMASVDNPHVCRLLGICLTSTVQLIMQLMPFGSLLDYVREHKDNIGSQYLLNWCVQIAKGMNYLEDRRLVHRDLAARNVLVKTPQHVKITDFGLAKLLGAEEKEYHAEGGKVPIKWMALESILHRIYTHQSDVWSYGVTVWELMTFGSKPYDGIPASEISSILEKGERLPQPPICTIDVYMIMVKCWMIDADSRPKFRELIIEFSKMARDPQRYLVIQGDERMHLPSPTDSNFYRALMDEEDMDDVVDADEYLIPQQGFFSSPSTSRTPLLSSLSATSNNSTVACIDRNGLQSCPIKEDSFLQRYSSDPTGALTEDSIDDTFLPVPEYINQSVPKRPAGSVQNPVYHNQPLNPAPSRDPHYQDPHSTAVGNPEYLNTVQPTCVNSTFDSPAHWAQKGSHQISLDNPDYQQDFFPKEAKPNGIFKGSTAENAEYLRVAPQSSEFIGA
IC50 (EGFR^Del19/T790M/C797S) [nM],IC50 (EGFR^L858R/T790M/C797S) [nM],GI50 [1] [nM],IC50 (ALK) [nM],GI50 [2] [nM],IC50 (ALK^G1202R) [nM],GI50 (Ba/F3(EML4-ALK) cells) [nM],SMILES
101 to 200,1 to 100,201 to 300,101 to 200,,,,"COc1cc(N2CCC(N3CCN(C(=O)CCCCCCc4cccc5c4C(=O)N(C4CCC(=O)NC4=O)C5=O)CC3)CC2)ccc1Nc1ncc(Cl)c(Nc2ccccc2P(C)(C)=O)n1 (stereo not shown) [Compound A1, 4-(7-(4-(1-(4-((5-chloro-4-((2-(dimethylphosphoryl)phenyl)amino)pyrimidin-2-yl)amino)-3-methoxyphenyl)piperidin-4-yl)piperazin-1-yl)-7-oxoheptyl)-2-(2,6-dioxopiperidin-3-yl)isoindoline-1,3-dione]"
101 to 200,1 to 100,201 to 300,1 to 100,,,,"COc1cc(N2CCC(N3CCN(C(=O)CCCCCCOc4cccc5c4C(=O)N(C4CCC(=O)NC4=O)C5=O)CC3)CC2)ccc1Nc1ncc(Cl)c(Nc2ccccc2P(C)(C)=O)n1 (stereo not shown) [Compound A2, 4-((7-(4-(1-(4-((5-chloro-4-((2-(dimethylphosphoryl)phenyl)amino)pyrimidin-2-yl)amino)-3-methoxyphenyl)piperidin-4-yl)piperazin-1-yl)-7-oxoheptyl)oxy)-2-(2,6-dioxopiperidin-3-yl)isoindoline-1,3-dione]"
1 to 100,1 to 100,1 to 100,1 to 100,1 to 100,101 to 200,1 to 100,"COc1cc(N2CCC(N3CCN(CCCCCCCOc4cccc5c4C(=O)N(C4CCC(=O)NC4=O)C5=O)CC3)CC2)ccc1Nc1ncc(Cl)c(Nc2ccccc2P(C)(C)=O)n1 (stereo not shown) [Compound A10, 4-((7-(4-(1-(4-((5-chloro-4-((2-(dimethylphosphoryl)phenyl)amino)pyrimidin-2-yl)amino)-3-methoxyphenyl)piperidin-4-yl)piperazin-1-yl)heptyl)oxy)-2-(2,6-dioxopiperidin-3-yl)isoindoline-1,3-dione]"
1 to 100,1 to 100,101 to 200,1 to 100,1 to 100,101 to 200,1 to 100,"COc1cc(N2CCC(N3CCN(CCCCCCCCCOc4cccc5c4C(=O)N(C4CCC(=O)NC4=O)C5=O)CC3)CC2)ccc1Nc1ncc(Cl)c(Nc2ccccc2P(C)(C)=O)n1 (stereo not shown) [Compound A11, 4-((9-(4-(1-(4-((5-chloro-4-((2-(dimethylphosphoryl)phenyl)amino)pyrimidin-2-yl)amino)-3-methoxyphenyl)piperidin-4-yl)piperazin-1-yl)nonyl)oxy)-2-(2,6-dioxopiperidin-3-yl)isoindoline-1,3-dione]"
1 to 100,1 to 100,,1 to 100,1 to 100,201 to 300,1 to 100,"COc1cc(N2CCC(N3CCN(CCCCC#Cc4cccc5c4CN(C4CCC(=O)NC4=O)C5=O)CC3)CC2)ccc1Nc1ncc(Cl)c(Nc2ccccc2P(C)(C)=O)n1 (stereo not shown) [Compound C116, 3-(4-(6-(4-(1-(4-((5-chloro-4-((2-(dimethylphosphoryl)phenyl)amino)pyrimidin-2-yl)amino)-3-methoxyphenyl)piperidin-4-yl)piperazin-1-yl)hex-1-yn-1-yl)-1-oxoisoindolin-2-yl)piperidine-2,6-dione]"
1 to 100,1 to 100,1 to 100,1 to 100,,201 to 300,1 to 100,"COc1cc(N2CCC(N3CCN(CCCCCC#Cc4cc(F)cc5c4CN(C4CCC(=O)NC4=O)C5=O)CC3)CC2)ccc1Nc1ncc(Cl)c(Nc2ccccc2P(C)(C)=O)n1 (stereo not shown) [Compound C167, 3-(4-(7-(4-(1-(4-((5-chloro-4-((2-(dimethylphosphoryl)phenyl)amino)pyrimidin-2-yl)amino)-3-methoxyphenyl)piperidin-4-yl)piperazin-1-yl)hept-1-yn-1-yl)-6-fluoro-1-oxoisoindolin-2-yl)piperidine-2,6-dione]"
1 to 100,1 to 100,,1 to 100,1 to 100,201 to 300,1 to 100,"COc1cc(N2CCC(N3CCN(CCCCCCC#Cc4cccc5c4CN(C4CCC(=O)NC4=O)C5=O)CC3)CC2)ccc1Nc1ncc(Cl)c(Nc2ccccc2P(C)(C)=O)n1 (stereo not shown) [Compound C177, 3-(4-(8-(4-(1-(4-((5-chloro-4-((2-(dimethylphosphoryl)phenyl)amino)pyrimidin-2-yl)amino)-3-methoxyphenyl)piperidin-4-yl)piperazin-1-yl)oct-1-yn-1-yl)-1-oxoisoindolin-2-yl)piperidine-2,6-dione]"
1 to 100,1 to 100,,1 to 100,1 to 100,201 to 300,1 to 100,"COc1cc(N2CCC(N3CCN(CCCCCCCC#Cc4cccc5c4CN(C4CCC(=O)NC4=O)C5=O)CC3)CC2)ccc1Nc1ncc(Cl)c(Nc2ccccc2P(C)(C)=O)n1 (stereo not shown) [Compound C178, 3-(4-(9-(4-(1-(4-((5-chloro-4-((2-(dimethylphosphoryl)phenyl)amino)pyrimidin-2-yl)amino)-3-methoxyphenyl)piperidin-4-yl)piperazin-1-yl)non-1-yn-1-yl)-1-oxoisoindolin-2-yl)piperidine-2,6-dione]"
1 to 100,1 to 100,,1 to 100,1 to 100,201 to 300,1 to 100,"COc1cc(N2CCC(N3CCN(CCCCC#Cc4ccc5c(c4)CN(C4CCC(=O)NC4=O)C5=O)CC3)CC2)ccc1Nc1ncc(Cl)c(Nc2ccccc2P(C)(C)=O)n1 (stereo not shown) [Compound C192, 3-(5-(6-(4-(1-(4-((5-chloro-4-((2-(dimethylphosphoryl)phenyl)amino)pyrimidin-2-yl)amino)-3-methoxyphenyl)piperidin-4-yl)piperazin-1-yl)hex-1-yn-1-yl)-1-oxoisoindolin-2-yl)piperidine-2,6-dione]"
